# Activity calls are given as the source filed them. No cut-off for these calls is given here.
# Assays:
# [1] = test system: A549; assay: Induction of cell cycle arrest in human A549 cells assessed as accumulation at S phase at 5 uM after 24 hrs by FITC-labeled anti-BrdU antibody/7AAD staining based FACS calibur flow cytometric analysis (reference value: 20.9 %); assay type: functional
# [2] = test system: A549; assay: Induction of cell cycle arrest in human A549 cells assessed as accumulation at G1 phase at 5 uM after 24 hrs by FITC-labeled anti-BrdU antibody/7AAD staining based FACS calibur flow cytometric analysis (reference value: 65.9 %); assay type: functional
# [3] = test system: A549; assay: Induction of cell cycle arrest in human A549 cells assessed as accumulation at G1 phase at 10 uM after 24 hrs by FITC-labeled anti-BrdU antibody/7AAD staining based FACS calibur flow cytometric analysis (reference value: 65.9 %); assay type: functional
# [4] = test system: A549; assay: Induction of cell cycle arrest in human A549 cells assessed as accumulation at G2/M phase at 10 uM after 24 hrs by FITC-labeled anti-BrdU antibody/7AAD staining based FACS calibur flow cytometric analysis (reference value: 12.61 %); assay type: functional
# [5] = test system: A549; assay: Induction of cell cycle arrest in human A549 cells assessed as accumulation at G1 phase at 15 uM after 24 hrs by FITC-labeled anti-BrdU antibody/7AAD staining based FACS calibur flow cytometric analysis (reference value: 65.9 %); assay type: functional
# [6] = test system: A549; assay: Induction of cell cycle arrest in human A549 cells assessed accumulation at G2/M phase at 25 uM after 24 hrs by FITC-labeled anti-BrdU antibody/7AAD staining based FACS calibur flow cytometric analysis (reference value: 12%); assay type: functional
# [7] = test system: A549; assay: Induction of cell cycle arrest in human A549 cells assessed as accumulation at sub G1 phase at 5 uM after 24 hrs by FITC-labeled anti-BrdU antibody/7AAD staining based FACS calibur flow cytometric analysis (reference value: 0.82 %); assay type: functional
# [8] = test system: A549; assay: Induction of cell cycle arrest in human A549 cells assessed as accumulation at sub G1 phase at 10 uM after 24 hrs by FITC-labeled anti-BrdU antibody/7AAD staining based FACS calibur flow cytometric analysis (reference value: 0.82 %); assay type: functional
# [9] = test system: A549; assay: Induction of p53 expression in human A549 cells at 25 uM after 24 hrs in presence of PFTalpha by Western blot analysis; assay type: functional, cell-based
# [10] = test system: A549; assay: Induction of cell cycle arrest in human A549 cells assessed as accumulation at G2/M phase after 24 hrs by FITC-labeled FACS calibur flow cytometric analysis; assay type: functional, cell-based
# [11] = test system: A549; assay: Upregulation of p53 expression in human A549 cells after 24 hrs by Western blot analysis; assay type: functional, cell-based
# [12] = test system: A549; assay: Upregulation of p21 expression in human A549 cells after 24 hrs by Western blot analysis; assay type: functional, cell-based
# [13] = test system: A549; assay: Induction of cell cycle arrest in human A549 cells assessed as accumulation at S phase at 25 uM after 24 hrs by FITC-labeled anti-BrdU antibody/7AAD staining based FACS calibur flow cytometric analysis (reference value: 20.9 %); assay type: functional
# [14] = test system: A549; assay: Induction of cell cycle arrest in human A549 cells assessed as accumulation at S phase at 15 uM after 24 hrs by FITC-labeled anti-BrdU antibody/7AAD staining based FACS calibur flow cytometric analysis (reference value: 20.9 %); assay type: functional
# [15] = test system: A549; assay: Downregulation of cdc2 expression in human A549 cells after 24 hrs by Western blot analysis; assay type: functional, cell-based
structure (smiles),measurement,setting,value
O=C(CN1CCN(c2cc3c(cc2F)c(=O)c(C(=O)O)cn3C2CC2)CC1)Nc1ccc(Cl)cc1,Activity,[1],16.2%
same,Activity,[2],68.9%
same,Activity,[3],58.5%
same,Activity,[4],22.6%
same,Activity,[5],46%
same,Activity,[6],63.9%
same,Activity,[7],1.65%
same,Activity,[8],4.19%
same,Activity,[9],inactive
same,Activity,[10],Dose-dependent effect
same,Activity,[11],Dose-dependent effect
same,Activity,[12],Dose-dependent effect
same,Activity,[13],10.5%
same,Activity,[14],19.8%
same,Activity,[15],Dose-dependent effect

# — ChEMBL document CHEMBL4428075, “New antiproliferative 7-(4-(N-substituted carbamoylmethyl)piperazin-1-yl) derivatives of ciprofloxacin induce cell cycle arrest at G2/M phase” (Bioorg Med Chem, 2016)
